Experimental data published in US7368578B2, “Five-membered heterocyclic compounds” (Takeda Pharmaceutical Company Limited, priority 2002, dated 2008).

SMILES | melting point [°C]
COc1cc(COc2nn(Cc3ccccc3)cc2C(=O)O)ccc1OCc1nc(-c2ccco2)oc1C [Example 13, 1-benzyl-3-[(4-{[2-(2-furyl)-5-methyl-1,3-oxazol-4-yl]methoxy}-3-methoxybenzyl)oxy]-1H-pyrazole-4-carboxylic acid] | 167 to 168
COc1cc(COc2nn(Cc3ccccc3)cc2C(N)=O)ccc1OCc1nc(-c2ccco2)oc1C [Example 14, 1-benzyl-3-[(4-{[2-(2-furyl)-5-methyl-1,3-oxazol-4-yl]methoxy}-3-methoxybenzyl)oxy]-1H-pyrazole-4-carboxamide] | 160 to 161
COc1cc(COc2nn(Cc3ccccc3)cc2CO)ccc1OCc1nc(-c2ccco2)oc1C [Example 15, (1-benzyl-3-[(4-{[2-(2-furyl)-5-methyl-1,3-oxazol-4-yl]methoxy)-3-methoxybenzyl)oxy]-1H-pyrazol-4-yl}methanol] | 104 to 105
COc1cc(COc2nn(Cc3ccccc3)cc2C=O)ccc1OCc1nc(-c2ccco2)oc1C [Example 16, 1-benzyl-3-[(4-{[2-(2-furyl)-5-methyl-1,3-oxazol-4-yl]methoxy}-3-methoxybenzyl)oxy]-1H-pyrazole-4-carbaldehyde] | 139 to 140
COc1cc(COc2nn(Cc3ccccc3)cc2C(C)O)ccc1OCc1nc(-c2ccco2)oc1C (centres unmarked) [Example 18, 1-{1-benzyl-3-[(4-{[2-(2-furyl)-5-methyl-1,3-oxazol-4-yl]methoxy}-3-methoxybenzyl)oxy]-1H-pyrazol-4-yl}-1-ethanol] | 105 to 106
COc1cc(COc2nn(Cc3ccccc3)cc2C(C)=O)ccc1OCc1nc(-c2ccco2)oc1C [Example 19, 1-{1-benzyl-3-[(4-{[2-(2-furyl)-5-methyl-1,3-oxazol-4-yl]methoxy}-3-methoxybenzyl)oxy]-1H-pyrazol-4-yl}-1-ethanone] | 144 to 145
CCOC(=O)c1cn(Cc2ccccc2)nc1OCc1ccc(OCc2nc(-c3ccccc3)oc2C)cc1 [Example 20, ethyl 1-benzyl-3-({4-[(5-methyl-2-phenyl-1,3-oxazol-4-yl)methoxy]benzyl}oxy)-1H-pyrazole-4-carboxylate] | 99 to 100
Cc1oc(-c2ccccc2)nc1COc1ccc(COc2nn(Cc3ccccc3)cc2C=O)cc1 [Example 22, 1-benzyl-3-[{4-[(5-methyl-2-phenyl-1,3-oxazol-4-yl)methoxy]benzyl}oxy]-1H-pyrazole-4-carbaldehyde] | 133 to 134
CCOC(=O)c1cn(Cc2ccccc2)nc1OCc1cccc(OCc2nc(-c3ccccc3)oc2C)c1 [Example 23, ethyl 1-benzyl-3-({3-[(5-methyl-2-phenyl-1,3-oxazol-4-yl)methoxy]benzyl}oxy)-1H-pyrazole-4-carboxylate] | 95 to 96
Cc1oc(-c2ccccc2)nc1COc1cccc(COc2nn(Cc3ccccc3)cc2C=O)c1 [Example 25, 1-benzyl-3-({3-[(5-methyl-2-phenyl-1,3-oxazol-4-yl)methoxy]benzyl}oxy)-1H-pyrazole-4-carbaldehyde] | 131 to 132
CCOC(=O)c1cn(Cc2ccccc2)nc1OCc1cccc(OCc2nc(-c3ccco3)oc2C)c1 [Example 26, ethyl 1-benzyl-3-[(3-{[2-(2-furyl)-5-methyl-1,3-oxazol-4-yl]methoxy}benzyl)oxy]-1H-pyrazole-4-carboxylate] | 92 to 93
Cc1oc(-c2ccco2)nc1COc1cccc(COc2nn(Cc3ccccc3)cc2C=O)c1 [Example 28, 1-benzyl-3-[(3-{[2-(2-furyl)-5-methyl-1,3-oxazol-4-yl]methoxy}benzyl)oxy]-1H-pyrazole-4-carbaldehyde] | 135 to 136
CCOC(=O)c1cn(Cc2ccccc2)nc1OCc1ccc(OCc2nc(-c3ccco3)oc2C)c(OCC)c1 [Example 29, ethyl 1-benzyl-3-[(3-ethoxy-4-{[2-(2-furyl)-5-methyl-1,3-oxazol-4-yl]methoxy}benzyl)oxy]-1H-pyrazole-4-carboxylate] | 121 to 122
CCOc1cc(COc2nn(Cc3ccccc3)cc2C=O)ccc1OCc1nc(-c2ccco2)oc1C [Example 31, 1-benzyl-3-[(3-ethoxy-4-{[2-(2-furyl)-5-methyl-1,3-oxazol-4-yl]methoxy}benzyl)oxy]-1H-pyrazole-4-carbaldehyde] | 144 to 145
CCOC(=O)c1cn(Cc2ccccc2)nc1OCc1ccc(OC)c(OCc2nc(-c3ccco3)oc2C)c1 [Example 32, ethyl 1-benzyl-3-[(3-{[2-(2-furyl)-5-methyl-1,3-oxazol-4-yl]methoxy}-4-methoxybenzyl)oxy]-1H-pyrazole-4-carboxylate] | 147 to 148
COc1ccc(COc2nn(Cc3ccccc3)cc2C=O)cc1OCc1nc(-c2ccco2)oc1C [Example 34, 1-benzyl-3-[(3-{[2-(2-furyl)-5-methyl-1,3-oxazol-4-yl]methoxy}-4-methoxybenzyl)oxy]-1H-pyrazole-4-carbaldehyde] | 142 to 143

SMILES | melting point [°C]
CCOC(=O)c1cn(Cc2ccccc2)nc1OCc1ccc(OCc2nc(-c3ccco3)oc2C)c(Cl)c1 [Example 35, ethyl 1-benzyl-3-[(3-chloro-4-{[2-(2-furyl)-5-methyl-1,3-oxazol-4-yl]methoxy}benzyl)oxy]-1H-pyrazole-4-carboxylate] | 153 to 154
Cc1oc(-c2ccco2)nc1COc1ccc(COc2nn(Cc3ccccc3)cc2C=O)cc1Cl [Example 37, 1-benzyl-3-[(3-chloro-4-{[2-(2-furyl)-5-methyl-1,3-oxazol-4-yl]methoxy}benzyl)oxy]-1H-pyrazole-4-carbaldehyde] | 158 to 159
Cc1oc(-c2ccco2)nc1COc1ccc(COc2nn(Cc3ccccc3)cc2C(=O)O)cc1Cl [Example 38, 1-benzyl-3-[(3-chloro-4-{[2-(2-furyl)-5-methyl-1,3-oxazol-4-yl]methoxy}benzyl)oxy]-1H-pyrazole-4-carboxylic acid] | 191 to 192
CCOC(=O)c1cn(Cc2ccccc2)nc1OCc1ccc(OCc2nc(-c3ccco3)oc2C)c(OCOC)c1 [Example 39, ethyl 1-benzyl-3-[(4-{[2-(2-furyl)-5-methyl-1,3-oxazol-4-yl]methoxy}-3-(methoxymethoxy)benzyl)oxy]-1H-pyrazole-4-carboxylate] | 120 to 121
CCOC(=O)c1cn(Cc2ccccc2)nc1OCc1ccc(OCc2nc(-c3ccco3)oc2C)nc1 [Example 40, ethyl 1-benzyl-3-[(6-{[2-(2-furyl)-5-methyl-1,3-oxazol-4-yl]methoxy}-3-pyridinyl)methoxy]-1H-pyrazole-4-carboxylate] | 140 to 141
Cc1oc(-c2ccco2)nc1COc1ccc(COc2nn(Cc3ccccc3)cc2C(=O)O)cn1 [Example 43, 1-benzyl-3-[(6-{[2-(2-furyl)-5-methyl-1,3-oxazol-4-yl]methoxy}-3-pyridinyl)methoxy]-1H-pyrazole-4-carboxylic acid] | 151 to 152
COCOc1cc(COc2nn(Cc3ccccc3)cc2C=O)ccc1OCc1nc(-c2ccco2)oc1C [Example 45, 1-benzyl-3-([4-{[2-(2-furyl)-5-methyl-1,3-oxazol-4-yl]methoxy}-3-(methoxymethoxy)benzyl]oxy)-1H-pyrazole-4-carbaldehyde] | 141 to 142
CCOC(=O)c1cn(Cc2ccccc2)nc1OCc1ccc(OCc2nc(-c3ccco3)oc2C)c(O)c1 [Example 46, ethyl 1-benzyl-3-[(4-{[2-(2-furyl)-5-methyl-1,3-oxazol-4-yl]methoxy}-3-hydroxybenzyl)oxy]-1H-pyrazole-4-carboxylate] | 134 to 135
CCOC(=O)c1cn(Cc2ccccc2)nc1OCc1ccc(OCc2nc(-c3ccco3)oc2C)c(OCc2ccccc2)c1 [Example 48, ethyl 1-benzyl-3-[(3-benzyloxy-4-{[2-(2-furyl)-5-methyl-1,3-oxazol-4-yl]methoxy}benzyl)oxy]-1H-pyrazole-4-carboxylate] | 127 to 128
Cc1oc(-c2ccco2)nc1COc1ccc(COc2nn(Cc3ccccc3)cc2C=O)cc1OCc1ccccc1 [Example 50, 1-benzyl-3-[(3-benzyloxy-4-{[2-(2-furyl)-5-methyl-1,3-oxazol-4-yl]methoxy}benzyl)oxy]-1H-pyrazole-4-carbaldehyde] | 130 to 131
Cc1oc(-c2ccco2)nc1COc1ccc(COc2nn(Cc3ccccc3)cc2C(=O)O)cc1OCc1ccccc1 [Example 51, 1-benzyl-3-[(3-benzyloxy-4-{[2-(2-furyl)-5-methyl-1,3-oxazol-4-yl]methoxy}benzyl)oxy]-1H-pyrazole-4-carboxylic acid] | 184 to 185
CCOC(=O)c1cn(Cc2ccccc2)nc1OCc1ccc(OCc2nc(-c3ccco3)oc2C)cc1OC [Example 52, ethyl 1-benzyl-3-[(4-{[2-(2-furyl)-5-methyl-1,3-oxazol-4-yl]methoxy}-2-methoxybenzyl)oxy]-1H-pyrazole-4-carboxylate] | 137 to 138
COc1cc(OCc2nc(-c3ccco3)oc2C)ccc1COc1nn(Cc2ccccc2)cc1C=O [Example 54, 1-benzyl-3-[(4-{[2-(2-furyl)-5-methyl-1,3-oxazol-4-yl]methoxy}-2-methoxybenzyl)oxy]-1H-pyrazole-4-carbaldehyde] | 147 to 148
CCOC(=O)c1cn(Cc2ccccc2)nc1OCc1ccc(OCc2nc(-c3ccco3)oc2C)c(Br)c1 [Example 55, ethyl 1-benzyl-3-[(3-bromo-4-{[2-(2-furyl)-5-methyl-1,3-oxazol-4-yl]methoxy}benzyl)oxy]-1H-pyrazole-4-carboxylate] | 158 to 159
CCOC(=O)c1cn(Cc2ccccc2)nc1OCc1ccc(OCc2nc(-c3ccco3)oc2C)c(-c2ccccc2)c1 [Example 56, ethyl 1-benzyl-3-[(4-{[2-(2-furyl)-5-methyl-1,3-oxazol-4-yl]methoxy}-3-phenylbenzyl)oxy]-1H-pyrazole-4-carboxylate] | 134 to 135
Cc1oc(-c2ccco2)nc1COc1ccc(COc2nn(Cc3ccccc3)cc2C(=O)O)cc1-c1ccccc1 [Example 57, 1-benzyl-3-[(4-{[2-(2-furyl)-5-methyl-1,3-oxazol-4-yl]methoxy}-3-phenylbenzyl)oxy]-1H-pyrazole-4-carboxylic acid] | 181 to 182
